# Data reported in US10682388B2, “Targeting of PELP1 in cancer therapy” (THE BOARD OF REGENTS OF THE UNIVERSITY OF TEXAS SYSTEM, priority 2014, dated 2020).
# “Also recorded” adds a separate entry of the source.
# Columns and labels:
# BG1 cells = assay: Ovarian cancer cell proliferation; type: cell-based; conditions: BG1, FIG. 14
# Description: FIG. 14. […] Cell proliferation rates were measured by using MTT Cell Viability Assay in 96-well plates. Model cells were seeded in 96-well plates (1×10^3 cells/well) in DMEM or RPMI medium containing 10% serum. After an overnight incubation, cells were treated with varying concentrations of the peptides for 3-7 days and growth inhibition was determined by using traditional MTT assay (Sigma) following manufacturer's instructions.
# PELP1-G9a complex = molecular target: T1, PELP1-G9a complex (Homo sapiens, UniProt Q8IZL8); assay: In vitro peptide competition assay, G9a-GST on glutathione beads with purified PELP1; type: binding; conditions: peptides 2, 5, 10 μM, 2 hours, FIGS. 2C, 7B, 9
# T1 construct: purified bacterial, full-length PELP1; host or cells: bacteria (PELP1)
# T1 sequence (Q8IZL8 2-1130, one chain of several): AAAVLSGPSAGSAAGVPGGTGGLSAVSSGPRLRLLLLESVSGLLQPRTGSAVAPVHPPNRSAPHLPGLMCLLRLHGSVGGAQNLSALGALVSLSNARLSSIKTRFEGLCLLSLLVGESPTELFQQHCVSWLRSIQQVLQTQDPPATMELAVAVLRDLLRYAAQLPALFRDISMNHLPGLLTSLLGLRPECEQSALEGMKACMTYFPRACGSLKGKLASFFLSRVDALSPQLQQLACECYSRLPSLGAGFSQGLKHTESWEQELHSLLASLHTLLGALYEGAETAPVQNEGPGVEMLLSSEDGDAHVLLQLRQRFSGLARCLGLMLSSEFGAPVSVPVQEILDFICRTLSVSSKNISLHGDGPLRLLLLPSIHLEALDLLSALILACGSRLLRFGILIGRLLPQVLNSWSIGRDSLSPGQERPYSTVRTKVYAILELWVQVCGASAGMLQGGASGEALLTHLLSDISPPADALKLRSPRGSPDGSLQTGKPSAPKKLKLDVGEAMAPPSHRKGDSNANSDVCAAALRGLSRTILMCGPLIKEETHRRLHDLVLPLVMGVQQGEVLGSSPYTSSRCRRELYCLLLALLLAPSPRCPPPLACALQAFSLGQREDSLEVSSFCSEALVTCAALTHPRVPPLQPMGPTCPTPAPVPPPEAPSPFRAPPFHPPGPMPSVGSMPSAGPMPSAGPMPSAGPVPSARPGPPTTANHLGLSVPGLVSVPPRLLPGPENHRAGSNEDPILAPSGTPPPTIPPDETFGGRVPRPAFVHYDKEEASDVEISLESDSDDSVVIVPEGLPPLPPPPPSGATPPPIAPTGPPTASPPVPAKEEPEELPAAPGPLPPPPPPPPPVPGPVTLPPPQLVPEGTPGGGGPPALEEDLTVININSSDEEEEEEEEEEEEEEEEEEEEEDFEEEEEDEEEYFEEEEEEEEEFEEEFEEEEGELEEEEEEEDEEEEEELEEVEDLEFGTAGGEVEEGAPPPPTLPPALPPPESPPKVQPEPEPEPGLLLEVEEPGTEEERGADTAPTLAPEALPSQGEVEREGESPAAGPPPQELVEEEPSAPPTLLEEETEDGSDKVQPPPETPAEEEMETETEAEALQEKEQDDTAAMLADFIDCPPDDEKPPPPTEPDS
# Description: FIGS. 2A-D. (FIG. 2A) Immunoprecipitation was performed on nuclear lysates obtained from ZRPELP1 cells grown in 5% DCC for 72 hours and treated with estradiol 10^−7 M for 12 hours. PELP1 was immunoprecipitated and western blotting was performed for PELP1 and G9a expression with IgG as the control. (FIG. 2B) Various fragments of PELP1 bound to glutathione beads were incubated with recombinant G9a for 2 hours. Beads were washed, run on an SDS-PAGE gel and immunoblotted for G9a expression. GST tag alone is shown as control. (FIG. 2C) Recombinant G9a-GST was bound to glutathione beads and incubated with purified PELP1 and peptides for 2 hours. Beads were washed and run on SDS-PAGE gel. (FIG. 2D) ZR75 cells were transfected with ERE-luciferase, PELP1 and/or G9a plasmids and treated with peptide for 24 hours and estradiol 10^−7 M for 12 hours. Relative luciferase activity is shown.
# (§1) FIGS. 7A-E. (FIG. 7A) Bacterial purified PELP1 was incubated with biotin-tagged peptides bound to avidin beads for one hour. Beads were washed, run on SDS-PAGE gel and probed for PELP1 expression. Input of bacterial PELP1 is shown as control. (FIG. 7B) Recombinant G9a-GST was bound to glutathione beads and incubated with purified PELP1 and peptides for 2 hours. Beads were washed and run on SDS-PAGE gel. (+2 μM, ++5 μM, +++10 μM). (FIG. 7C) ZRGST and ZRPELP1GST cells were transfected in triplicate with TopFlash β-catenin reporter and treated with TAT or PIP1 (10 μM) for 24 hours. Relative luciferase activity is shown. (FIG. 7D) MCF7vec and MCF7PELP1 cells were treated with TAT or PIP1 (10 μM) and toxicity was measured by CytoTox-Flour Cytotoxicity Assay. (FIG. 7E) ZR75 and ZR75PELP1 cells were treated with TAT, PIP1 or PIP2 for 24 hours and immunoblotted for PELP1 and ERα expression with actin as the loading control.
# FIG. 9. […]
# Peptides were linked to EZ-Link NHS-Biotin (Thermo Scientific) per manutfacturer's protocol. […] Beads were washed 3× with IP buffer (20 mM HEPES pH 7.9, 20% glycerol, 0.1% triton-x, 100 mM KCl), eluted with SDS-dye, and PELP1 expression was determined by western blotting. […]
# [1] = test system: ZR75PELP1KD and MCF7PEP1KD cells; assay: MTT proliferation assay in PELP1 knockdown cells; type: cell-based, Human; conditions: increasing doses 10, 20, or 50 μM, day 7, FIGS. 8A-B
# Description: FIGS. 8A-C. (FIG. 8A) ZR75PELP1KD cells were treated in triplicate with TAT or PIP1 (10, 20, or 50 μM) every 3 days and proliferation was measured by MTT assay on day 7. (FIG. 8B) MCF7PELP1KD cells were treated in triplicate with TAT or PIP1 (10, 20, or 50 μM) every 3 days and proliferation was measured by MTT assay on day 7. (FIG. 8C) MDAMB231 and MDAMB468 cells were treated in triplicate with TAT or PIP1 (10 μM) every 3 days and proliferation was measured by MTT assay on day 7. Cell proliferation rates were measured by using MTT Cell Viability Assay in 96-well plates. Model cells were seeded in 96-well plates (1×10^3 cells/well) in DMEM or RPMI medium containing 10% serum. After an overnight incubation, cells were treated with varying concentrations of the peptides for 3-7 days and growth inhibition was determined by using traditional MTT assay (Sigma) following manufacturer's instructions.
# [2] = test system: MCF7PELP1 Cd44high/CD22low cells; assay: Mammosphere formation and self-renewal assay on FACS-sorted cells; type: cell-based, Human
# Excerpt: FIGS. 6A-C. (FIG. 6A) ZR75, ZR75PELP1 and ZR75PELP1KD cells were FACS sorted for CD44-APC and CD24-PE, and quantification of percentage of CD44high/CD24low cells is shown. (FIG. 6B) MCF7PELP1 cells were FACS sorted for CD44high/CD24low cells and plated in triplicate in serum free mammosphere media with TAT or PIP1 in various concentrations. Mammospheres were counted and imaged on day 7. Representative images are shown on right. (FIG. 6C) Mammospheres from previous assay (C) were dissociated and replated in serum free mammosphere media. Mammospheres were counted and imaged on day 7. Representative images are shown on right. ZR75PELP1 and MCF7PELP1 cells were FACS sorted for CD44-APC^high (Milteny Biotec) and CD24-PE^low (Milteny Biotec) cell surface markers. A single cell suspension of model cells ZR75-PELP1 were seeded in mammosphere media in a low adherent 96-well plate with TAT or PIP (10, 20 or 50 μM). Media containing peptide was added on day 4 and mammospheres were counted and imaged on day 8 (Shaw et al., 2012).
# [3] = test system: Beta-catenin reporter in ZRGST and ZRPELP1GST cells; assay: TopFlash β-catenin reporter assay; type: cell-based; conditions: 10 μM, 24 hours, independent of ERα, FIG. 7C
# Description: as §1
sequence,measurement,setting,value
GRKKRRQRRRGGMVEFRWSCPGRRKAKA [PIP1],proliferation of ovarian cancer cells,BG1 cells,dose-dependent decrease in the proliferation; also recorded: inhibits proliferation of ovarian cancer cells
same,disruption of PELP1 interaction with G9a/EHMT2,PELP1-G9a complex,disrupted by the addition of either of the two peptides in a dose-dependent manner
same,proliferation in PELP1 knockdown cells,[1],only saw an effect at very high concentrations
same,number of mammospheres,"[2]; 10, 20 and 50 μM, FIG. 6B",significant decrease in the number of mammospheres
same,size of the mammospheres,"[2]; 10, 20 and 50 μM, FIG. 6B",substantially decreased
same,self-renewal capacity of replated mammospheres,"[2]; dissociated and replated, FIG. 6C",decreased self-renewal capacity; also recorded: inhibits the self-renewal of the cancer stem cells
same,Beta-catenin reporter activity,[3],no significant effect on reporter activity
